Assay: In vitro release of Tacrolimus from plug samples into releasing medium buffer (PBS + BAK + Triton) at 37 degrees Celsius, HPLC-MS-MS
Type: physicochemical
Conditions: implants contain approximately 900 micrograms of TAC
Experimental: In an example of an embodiment of the composition of the present invention, plug samples containing Tacrolimus were prepared. Samples were incubated at 37 degrees Celsius for varying times to determine time effect on Tacrolimus release profile from the sample into a polar solution (PBS).
The solution included the following: 0.01M PBS, 0.005% BAK, and 0.1% TRITON X-100.
Composite weight 3 mg with 30% Tacrolimus.
Development of HPLC-MS-MS Method for Tacrolimus (TCM)
Table 2 provides a list of samples used in the sustained release profile and cumulative sustained release profile illustrated in FIGS. 4 and 5, respectively. Samples 19-1 to 19-8 are Type A, COM TAC 1. Samples 19-9 to 19-16 are Type A, COM TAC 2. Samples 19-17 to 19-24 are Type B, EPO TAC 1. Samples 19-25 to 19-32 are Type B, EPO TAC 2.

TAC average release in vitro (first 3 months): about 1.7 μg/day | TAC release in vitro (first month): 2 µg/day | TAC steady state release in vitro (following 2-3 months): 1.5 µg/day | estimated duration of release in vitro: 6 months
Compound: C=CC[C@@H]1/C=C(\C)C[C@H](C)C[C@H](OC)[C@H]2O[C@@](O)(C(=O)C(=O)N3CCCC[C@H]3C(=O)O[C@H](/C(C)=C/[C@@H]3CC[C@@H](O)[C@H](OC)C3)[C@H](C)[C@@H](O)CC1=O)[C@H](C)C[C@@H]2OC [TAC, (3S,4R,5S,8R,9E,12S,14S,15R,16S,18R,19R,26aS)-5,19-dihydroxy-3-{(1E)-1-[(1R,3R,4R)-4-hydroxy-3-methoxycyclohexyl]prop-1-en-2-yl}-14,16-dimethoxy-4,10,12,18-tetramethyl-8-(prop-2-en-1-yl)-5,6,8,11,12,13,14,15,16,17,18,19,24,25,26,26a-hexadecahydro-3H-15,19-epoxypyrido[2,1-c][1,4]oxazacyclotricosine-1,7,20,21(4H,23H)-tetrone]

From patent US20200147055A1, “COMPOSITIONS AND METHODS FOR TREATING DRY EYE SYNDROME DELIVERING ANTIBIOTIC MACROLIDE” (Eximore Ltd., priority 2017, published 2020)
